Results on 1 molecule are retold here after patent US20100104625A1, “BIODEGRADABLE COMPOSITIONS AND MATERIALS” (CORNELL UNIVERSITY, priority 2007, published 2010).

The data set can be described thus: Sessile contact angle of water on lipid pellet surface. Conditions: pellets fabricated from each lipid. Format: physicochemical. The method, then: Particle characterization. Particle morphology and size were studied at low voltage (5 kV) using scanning electron microscopy imaging (LEICA 440) after coating with palladium. Surface charge measurements on samples suspended in 1:10 diluted PBS were carried out using a Malvern Zetasizer-Nano ZS (Malvern, UK). A PRECO Hydraulic press (Los Angles, Calif.) was used to make lipid pellets with approximate surface area of 25 mm^2. For contact angle measurements, a ramé-hart contact angle goniometer (100-FO) was used to measure the sessile contact angle of water on a lipid pellet surface. Unless otherwise stated, measurements were taken in triplicate.

Turning to `CCCCCCCC(=O)OCC(=O)COC(=O)CCCCCCC` [C8], the “Hydrophobicity by contact angle of water on lipid surfaces” value was “least hydrophobic”.
